Patent publication US10947252B2, “Inhibitors of KEAP1-Nrf2 protein-protein interaction” (Janssen Pharmaceutica NV, priority 2018, dated 2021)

What follows are compounds tested on Glo-Response ARE-luc2P HEK293 cell line (assay: ARE luciferase reporter cell-based assay). Conditions: 24 hours, average of results obtained.
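Also: luciferase signal tracks Nrf2 activation of the ARE once compounds disrupt KEAP1-Nrf2 binding, read with One-Glo reagent, DMSO serving as low control.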

**Q.** For `Cc1ccc([C@H](CC(=O)O)c2ccn3c(C(F)(F)F)nnc3c2C)cc1CN1C[C@@H]2COCCN2c2ncccc2S1(=O)=O` (relative stereo) [Example 276, (*S)-3-(3-(((*R)-5,5-Dioxido-7a,8,10,11-tetrahydro-[1,4]oxazino[3,4-d]pyrido[2,3-f][1,2,5]thiadiazepin-6(7H)-yl)methyl)-4-methylphenyl)-3-(8-methyl-3-(trifluoromethyl)-[1,2,4]triazolo[4,3-a]pyridin-7-yl)propanoic Acid], which EC50 is on record?
**A.** 112 nM

**Q.** `Cc1ccc([C@@H](CC(=O)O)c2ccn3c(C(F)(F)F)nnc3c2C)cc1CN1C[C@@H]2COCCN2c2ncccc2S1(=O)=O` (relative stereo) [Example 277, (*R)-3-(3-(((*R)-5,5-Dioxido-7a,8,10,11-tetrahydro-[1,4]oxazino[3,4-d]pyrido[2,3-f][1,2,5]thiadiazepin-6(7H)-yl)methyl)-4-methylphenyl)-3-(8-methyl-3-(trifluoromethyl)-[1,2,4]triazolo[4,3-a]pyridin-7-yl)propanoic Acid] was tested. Which EC50 did it give?
**A.** 102 nM

Same assay, conditions: Homo sapiens, HEK293, 24 h, average of results obtained

**Q.** For `Cc1cnc2c(c1)S(=O)(=O)N(Cc1cc(C(c3ccn4c(C(F)F)nnc4c3C)C(C)(C)C(=O)O)ccc1C)CC1(CC1)O2` (racemic) [Example 559, (R/S)-3-(3-(Difluoromethyl)-8-methyl-[1,2,4]triazolo[4,3-a]pyridin-7-yl)-2,2-dimethyl-3-(4-methyl-3-((8′-methyl-1′,1′-dioxidospiro[cyclopropane-1,4′-pyrido[2,3-b][1,4,5]oxathiazepin]-2′(3′H)-yl)methyl)phenyl)propanoic Acid], which EC50 is on record?
**A.** 4.69 nM

**Q.** `Cc1ccc([C@H](c2ccn3c(C(F)(F)F)nnc3c2C)C(C)(C)C(=O)O)cc1CN1CC2(CCOCC2)Oc2nc(NCCCO)ccc2S1(=O)=O` (single isomer, unassigned) [Example 116, (*R)-3-(3-((7′-((3-Hydroxypropyl)amino)-1′,1′-dioxido-2,3,5,6-tetrahydrospiro[pyran-4,4′-pyrido[2,3-b][1,4,5]oxathiazepin]-2′(3′H)-yl)methyl)-4-methylphenyl)-2,2-dimethyl-3-(8-methyl-3-(trifluoromethyl)-[1,2,4[triazolo[4,3-a]pyridine-7-yl)propanoic Acid] was tested. Which EC50 did it give?
**A.** 991 nM

**Q.** Which EC50 does the source give for `COCCCOc1ccc2c(n1)OC1(CC1)CN(Cc1cc([C@H](CC(=O)O)c3ccn4c(C(F)(F)F)nnc4c3C)ccc1C)S2(=O)=O` (single isomer, unassigned) [Example 109, (*S)-3-(-3-((7′-((3-Methoxypropoxy)-1′,1′-dioxidospiro[cyclopropane-1,4′-pyrido[2,3-b][1,4,5]oxathiazepin]-2′(3′H)-yl)methyl)-4-methylphenyl)-3-(8-methyl-3-(trifluoromethyl)-[1,2,4[triazolo[4,3-a]pyridine-7-yl)propanoic Acid] here?
**A.** 128 nM

**Q.** How did the EC50 turn out when `CCn1nnc2c(C)c([C@@H](CC(=O)O)c3ccc(C)c(CN4CC(C)(C)Oc5ccccc5S4(=O)=O)c3)ccc21` (single isomer, unassigned) [Example 158, (*S)-3-(3-((4,4-Dimethyl-1,1-dioxido-3,4-dihydro-2H-benzo[b][1,4,5]oxathiazepin-2-yl)methyl)-4-methylphenyl)-3-(1-ethyl-4-methyl-1H-benzo[d][1,2,3]triazol-5-yl)propanoic Acid] was run?
**A.** 6.2 nM

**Q.** How did the EC50 turn out when `CCn1nnc2c(C)c([C@@H](CC(=O)O)c3ccc(C)c(CN4C[C@@H]5CCCN5c5ccccc5S4(=O)=O)c3)ccc21` (relative stereo) [Example 148, (*S)-3-[3-[(5,5-Dioxo-7a,8,9,10-tetrahydro-7H-pyrrolo[2,1-d][1,2,5]benzothiadiazepin-6-yl)methyl]-4-methyl-phenyl]-3-(1-ethyl-4-methyl-benzotriazol-5-yl)propanoic Acid] was run?
**A.** 15 nM

**Q.** For `Cc1ccc([C@H](c2ccn3c(C(F)F)nnc3c2C)C(C)(C)C(=O)O)cc1CN1CC2(CC2)Oc2ncccc2S1(=O)=O` (single isomer, unassigned) [Example 568, (*R)-3-(3-(Difluoromethyl)-8-methyl-[1,2,4]triazolo[4,3-a]pyridin-7-yl)-3-(3-((1′,1′-dioxidospiro[cyclopropane-1,4′-pyrido[2,3-b][1,4,5]oxathiazepin]-2′(3′H)-yl)methyl)-4-methylphenyl)-2,2-dimethylpropanoic Acid], which EC50 is on record?
**A.** 192 nM

**Q.** For `Cc1ccc([C@H](CC(=O)O)c2ccn3c(C(F)(F)F)nnc3c2C)cc1CN1CC2(CC2)Oc2nc(N(C)CCO)ccc2S1(=O)=O` (single isomer, unassigned) [Example 110, (*S)-3-(-3-((7′-((3-Hydroxyethyl)(methyl)amino)-1′,1′-dioxidospiro[cyclopropane-1,4′-pyrido[2,3-b][1,4,5]oxathiazepin]-2′(3′H)-yl)methyl)-4-methylphenyl)-3-(8-methyl-3-(trifluoromethyl)-[1,2,4[triazolo[4,3-a]pyridine-7-yl)propanoic Acid], which EC50 is on record?
**A.** 485 nM

**Q.** Which EC50 does the source give for `Cc1ccc([C@@H](c2ccc3c(nnn3C3CC3)c2C)C(C)(C)C(=O)O)cc1CN1CC2(CCNCC2)Oc2ncccc2S1(=O)=O` (single isomer, unassigned) [Example 648, (*S)-3-(1-Cyclopropyl-4-methyl-1H-benzo[d][1,2,3]triazol-5-yl)-3-(3-((1′,1′-dioxidospiro[piperidine-4,4′-pyrido[2,3-b][1,4,5]oxathiazepin]-2′(3′H)-yl)methyl)-4-methylphenyl)-2,2-dimethylpropanoic Acid] here?
**A.** 1350 nM

**Q.** With `Cc1ccc([C@H](CC(=O)O)c2ccc3c(nnn3C3CC3)c2C)cc1CN1CC2(CC2)N(C)c2ncccc2S1(=O)=O` (single isomer, unassigned) [Example 225, (*S)-3-(1-Cyclopropyl-4-methyl-1H-benzo[d][1,2,3]triazol-5-yl)-3-(4-methyl-3-((5′-methyl-1′,1′-dioxido-5′H-spiro[cyclopropane-1,4′-pyrido[2,3-f][1,2,5]thiadiazepin]-2′(3′H)-yl)methyl)phenyl)propanoic Acid] as the compound, how does the EC50 read?
**A.** 5 nM

**Q.** How did the EC50 turn out when `CCn1nnc2c(C)c(C(CC(=O)O)c3ccc(C)c(CN4CC(C)(C)Oc5ncccc5S4(=O)=O)c3)ccc21` (racemic) [Example 150, (R/S)-3-[3-[(4,4-Dimethyl-1,1-dioxo-3H-pyrido[2,3-b][1,4,5]oxathiazepin-2-yl)methyl]-4-methyl-phenyl]-3-(1-ethyl-4-methyl-benzotriazol-5-yl)propanoic Acid] was run?
**A.** 56 nM

**Q.** `CCn1nnc2c(C)c(C(CC(=O)O)c3ccc(C)c(CN4C[C@@H]5CCCN5c5ccccc5S4(=O)=O)c3)ccc21` (mixture of isomers) [Example 147, (R/S)-3-(3-(((S)-5,5-Dioxido-7a,8,9,10-tetrahydrobenzo[f]pyrrolo[2,1-d][1,2,5]thiadiazepin-6(7H)-yl)methyl)-4-methylphenyl)-3-(1-ethyl-4-methyl-1H-benzo[d][1,2,3]triazol-5-yl)propanoic Acid] was tested. Which EC50 did it give?
**A.** 19 nM

**Q.** How did the EC50 turn out when `Cc1cnc2c(c1)S(=O)(=O)N(Cc1cc(C(c3ccn4c(C(F)(F)F)nnc4c3C)C(C)(C)C(=O)O)cnc1C)CC1(CC1)O2` (racemic) [Example 572] was run?
**A.** 392 nM

**Q.** Which EC50 does the source give for `Cc1ccc([C@H](CC(=O)O)c2ccn3c(C(F)(F)F)nnc3c2C)cc1CN1C[C@@H]2CCCCN2c2ncc(F)cc2S1(=O)=O` (relative stereo) [Example 309, (*S)-3-(3-(((*S)-3-fluoro-5,5-dioxido-7,7a,8,9,10,11-hexahydro-6H-dipyrido[2,1-d:2′,3′-f][1,2,5]thiadiazepin-6-yl)methyl)-4-methylphenyl)-3-(8-methyl-3-(trifluoromethyl)-[1,2,4]triazolo[4,3-a]pyridin-7-yl)propanoic Acid] here?
**A.** 0.9 nM

**Q.** For `Cc1ccc([C@H](CC(=O)O)c2ccn3c(C(F)F)nnc3c2C)cc1CN1C[C@@H]2CCCCN2c2ncccc2S1(=O)=O` (relative stereo) [Example 447, (*S)-3-(3-(Difluoromethyl)-8-methyl-[1,2,4]triazolo[4,3-a]pyridin-7-yl)-3-(3-(((*S)-5,5-dioxido-7,7a,8,9,10,11-hexahydro-6H-dipyrido[2,1-d:2′,3′-f][1,2,5]thiadiazepin-6-yl)methyl)-4-methylphenyl)propanoic Acid], which EC50 is on record?
**A.** 2.93 nM

**Q.** How did the EC50 turn out when `Cc1ccc([C@H](CC(=O)O)c2ccn3c(C(F)F)nnc3c2C)cc1CN1CC2(CC2)Oc2ncc(Cl)cc2S1(=O)=O` (single isomer, unassigned) [Example 530, (*S)-3-(3-((8′-Chloro-1′,1′-dioxidospiro[cyclopropane-1,4′-pyrido[2,3-b][1,4,5]oxathiazepin]-2′(3′H)-yl)methyl)-4-methylphenyl)-3-(3-(difluoromethyl)-8-methyl-[1,2,4]triazolo[4,3-a]pyridin-7-yl)propanoic Acid] was run?
**A.** 10.2 nM

**Q.** Which EC50 does the source give for `Cc1ccc([C@@H](c2cc(OC(F)F)c3c(c2)nnn3C)C(C)(C)C(=O)O)cc1CN1CC2(CCOCC2)Oc2ncccc2S1(=O)=O` (single isomer, unassigned) [Example 426] here?
**A.** 0.9 nM

**Q.** `Cc1c(C(CC(=O)O)c2ccc(Cl)c(CN3CC4(COC4)Oc4ccccc4S3(=O)=O)c2)ccn2c(C(F)(F)F)nnc12` (stereo not drawn) [Example 95] was tested. Which EC50 did it give?
**A.** 1080 nM

**Q.** `Cc1cnc2c(c1)S(=O)(=O)N(Cc1cc([C@@H](CC(=O)O)c3ccn4c(C(F)(F)F)nnc4c3C)ccc1Cl)CC1CCCCN21` (stereo in doubt) [Example 90, (*R)-3-(4-Chloro-3-(((*S)-3-methyl-5,5-dioxido-7,7a,8,9,10,11-hexahydro-6H-dipyrido[2,1-d:2′,3′-f][1,2,5]thiadiazepin-6-yl)methyl)phenyl)-3-(8-methyl-3-(trifluoromethyl)-[1,2,4]triazolo[4,3-a]pyridine-7-yl)propanoic Acid] was tested. Which EC50 did it give?
**A.** 4.2 nM

**Q.** With `Cc1ccc([C@H](CC(=O)O)c2ccn3c(C(F)F)nnc3c2C)cc1CN1C[C@@H]2CCCCN2c2ncc(F)cc2S1(=O)=O` (relative stereo) [Example 511, (*S)-3-(3-(Difluoromethyl)-8-methyl-[1,2,4]triazolo[4,3-a]pyridin-7-yl)-3-(3-(((*S)-3-fluoro-5,5-dioxido-7,7a,8,9,10,11-hexahydro-6H-dipyrido[2,1-d:2′,3′-f][1,2,5]thiadiazepin-6-yl)methyl)-4-methylphenyl)propanoic Acid] as the compound, how does the EC50 read?
**A.** 1.52 nM
